Results published in US20050032646A1, “Agents for the regulation of gametophytic self-incompatibility and a control method for the breakdown of gametophytic self-incompatibility using the agents” (priority 2002, published 2005).

Experiments:
[1] = test system: style-specific S RNase of Fuji apple; experiment: Inhibition of the activity of a style-specific S RNase by the agents; format: biochemical; details: optical density at 260 nm (A260), agent 2.0 mM, no treatment 1.10
Procedure: Inhibition of S RNase activity by an agent of the present invention was measured as follows: The standard solution of 500 μL of 10 mM sodium phosphate (pH 7.0) with an agent (2.0 mM), and 500 μL of torula yeast rRNA (5 mg/mL) was pre-incubated for 10 min at 37° C. To the substrate solution, the 20 μL of the style-specific S RNase (200 ng) of Fuji apple was added, then the solution was incubated for 30 min at 37° C. A fraction of 200 μL was collected and 40 μL of stop buffer (ice-cold 25% HCIO4, 0.75% uranyl acetate) was added, then mixed and centrifuged at 12,000 rpm for 5 min. And 50 μL of the supernatant was diluted with 950 μL of dd H2O, then the solution was centrifuged and measured the optical density at 260 nm (A260) (Singh A. et al., Plant Physilolgy, 96: 61-68,1991).

20-Century pear = experiment: Breakdown of the self-incompatibility in 20-century pear (fertilization rate, field); format: in vivo; details: 600 μM, sprayed 5 and 2 days before full bloom, 14 days after the treatment
Procedure: In a field test, 20-Century pear (the Rosaceae) which has self-incompatibility system was isolated single-genetically by covering up selected branches or whole plants with a fine-meshed net to exclude any pollinating insects. The aqueous of 600 μM solution of an agent of the present invention was treated enough to get-wet flowers with a micro-spray at 9:00-11:00 AM. The agent solution was micro-sprayed 2 times; first at 5 days before full bloom and second at 2 days before full bloom. The reference was artificial cross-pollination at full bloom. The fertilization rate was investigated 14 days after the treatment and compared with no treatment and artificial cross-pollination.

Lycopersicon peruvianum = experiment: Breakdown of the self-incompatibility in Lycopersicon peruvianum (fruition rate, greenhouse); format: in vivo
Procedure: To verify the inhibition of a style-specific S RNase and the suppression of SI system with an agent of the present invention in a practical cultivating Environment, a wild-type tomato (Lycopersicon peruvianum) which has a gametophytic SI system was cultivated in a greenhouse at genetically insulated environment and was treated with an S RNase inhibitor of the present invention.
To determine the treatment period of an S RNase inhibitor, the inhibitor was applied to flowers either at the early blooming period (budding formation period to full blooming), or the middle blooming period (full blooming), or the late blooming period (1 day after full blooming period of petal), respectively. Each inhibitors in 0.1 mM aqueous solution (except the ZnSO4 (1 mM) and CuSO4 (1.0 mM) solution) was treated enough to get-wet flowers ith a micro-spray at 9:00-11:00 AM when the pollination of plant occurs most actively. The experiment with 25 blooming flowers (organ containing a stamen, a stigma, a petal, etc.) was repeated 4 times and the fruition rate ws investigated and the results are shown in Table 2.

Hongro apple = experiment: Breakdown of the self-incompatibility in Hongro apple (self-pollination rate, field); format: in vivo; details: 25 days after the treatment
Procedure: In the field application experiment, Hongro apple (the Rosaceae) which has a very low self-pollination rate (<5%) was isolated single-genetically by covering up whole plants with a fine-meshed net to exclude any pollinating insects. The agent of the present invention was treated enough to get-wet flowers at various concentrations with a micro-spray at 9:00-11:00 AM. The target of the agent was the first-blooming primary apple flower. The self-pollination rate was investigated 25 days after the treatment and compared with no treatment and artificial cross-pollination.

Hongro apple flowers = experiment: Side-effect of the agents toward Hongro apple flowers; format: in vivo; design: key: 0: no side-effect is observed, and it is same as no treatment of the agents; 1: the side-effect are observed in flowers, but they recover to normal fruition in a week; 2: a fall-out of flowers and 10% decrease in fruition rate; 3: about 40% loss; 4: 60% loss; 5: a severe loss in fruition
Procedure: To investigate the side-effect of the agent, various concentrations of the agents were treated to the flowers of Hongro apple.

Safinia purple = experiment: Breakdown of self-incompatibility and seed production of Safinia purple; format: in vivo, Safinia purple (petunia)
Procedure: To establish the application method of the SI suppressing agent for the seed production, a field experiment was performed with Safinia purple ( the Solanaceae, a petunia developed by Suntory Ltd).
To a 15 cm-radii round pot, were added fine soil (pH 5.6) and 2 gr of complex fertilizer (including N, P, K 8% each) and they were mixed well. Safinia purple of 10 cm height were planted and raised in a green house for 2 weeks. At the period of 30 % bloom the diluted aqueous solutions of Zn(II) propionate or Cu(II) propionate agent were micro-sprayed enough to wet a flower and a style(3 ml). Two days after treatment of the agent, self-pollen was pollinated to its own style and the seed production was investigated. The experiments were repeated twice.

[2] = agent 0.1 mM, treated 1 day after full blooming
[3] = agent 0.1 mM, treated 1 day before full blooming
[4] = agent 0.1 mM, treated 2 days after full blooming
[5] = agent 0.1 mM, treated 2 days before full blooming
[6] = agent 0.1 mM, treated 3 days before full blooming
[7] = agent 0.1 mM, treated 4 days before full blooming
[8] = agent 0.1 mM, treated 5 days before full blooming
[9] = agent 0.1 mM, treated 6 days before full blooming
[10] = agent 0.1 mM, treated 7 days before full blooming
[11] = agent 0.1 mM, treated at full blooming (0 day)
[12] = agent 1.0 mM, treated 1 day after full blooming
[13] = agent 1.0 mM, treated 1 day before full blooming
[14] = agent 1.0 mM, treated 2 days after full blooming
[15] = agent 1.0 mM, treated 2 days before full blooming
[16] = agent 1.0 mM, treated 3 days before full blooming
[17] = agent 1.0 mM, treated 4 days before full blooming
[18] = agent 1.0 mM, treated 5 days before full blooming
[19] = agent 1.0 mM, treated 6 days before full blooming
[20] = agent 1.0 mM, treated 7 days before full blooming
[21] = agent 1.0 mM, treated at full blooming (0 day)

SMILES	OD (2.0 mM) [1]	fertilization rate (20-Century pear) [%]	fruition rate (Lycopersicon peruvianum; [2]) [%]	fruition rate (Lycopersicon peruvianum; [3]) [%]	fruition rate (Lycopersicon peruvianum; [4]) [%]	fruition rate (Lycopersicon peruvianum; [5]) [%]	fruition rate (Lycopersicon peruvianum; [6]) [%]	fruition rate (Lycopersicon peruvianum; [7]) [%]	fruition rate (Lycopersicon peruvianum; [8]) [%]	fruition rate (Lycopersicon peruvianum; [9]) [%]	fruition rate (Lycopersicon peruvianum; [10]) [%]	fruition rate (Lycopersicon peruvianum; [11]) [%]	self-pollination rate (Hongro apple; concentration 0.01 mM) [%]	self-pollination rate (Hongro apple; concentration 0.03 mM) [%]	self-pollination rate (Hongro apple; concentration 0.10 mM) [%]	self-pollination rate (Hongro apple; concentration 0.30 mM) [%]	self-pollination rate (Hongro apple; concentration 1.0 mM) [%]	side-effect index (Hongro apple flowers; 1.0 mM)	side-effect index (Hongro apple flowers; 5.0 mM)	side-effect index (Hongro apple flowers; 20.0 mM)	other results
O=C([O-])[C@H](O)[C@@H](O)[C@H](O)[C@H](O)CO.O=C([O-])[C@H](O)[C@@H](O)[C@H](O)[C@H](O)CO.[Cu+2] [Cu(II) Gluconate]	0.70	51	–	–	–	–	–	–	–	–	–	–	–	–	–	–	–	–	–	–	–
COCCOCC(=O)[O-].COCCOCC(=O)[O-].[Zn+2] [Zn(II) 2-methoxyethoxyacetate]	0.64	53	0	>60	0	>50	>10	<10	0	0	0	>40	>10	>40	>60	>60	>60	0	0	1	–
O=S(=O)([O-])[O-].[Cu+2] [CuSO4, reference compound]	0.70	–	–	–	–	–	–	–	–	–	–	–	0	0	0	0	<10	3	5	5	fruition rate (Lycopersicon peruvianum; [12]): 0%; fruition rate (Lycopersicon peruvianum; [13]): 0%; fruition rate (Lycopersicon peruvianum; [14]): 0%; fruition rate (Lycopersicon peruvianum; [15]): 0%; fruition rate (Lycopersicon peruvianum; [16]): <5%; fruition rate (Lycopersicon peruvianum; [17]): <5%; fruition rate (Lycopersicon peruvianum; [18]): >10%; fruition rate (Lycopersicon peruvianum; [19]): >10%; fruition rate (Lycopersicon peruvianum; [20]): >10%; fruition rate (Lycopersicon peruvianum; [21]): 0%
COCCOCCOCC(=O)[O-].COCCOCCOCC(=O)[O-].[Cu+2] [Cu(II) 2-(2-methoxyethoxy)ethoxyacetete, Cu(II) 2-(2-methoxyethoxy) ethoxyacetete]	0.63	53	0	>60	0	>50	>10	<10	0	0	0	>50	–	–	–	–	–	0	0	1	–
CCC(=O)[O-].CCC(=O)[O-].[Cu+2] [Cu(II) Propionate]	0.73	53	–	–	–	–	–	–	–	–	–	–	–	–	–	–	–	0	0	1	seed production relative (%) to control (Safinia purple; concn 10 μM): 485.7%; self-pollination pollination ratio (%) (Safinia purple; concn 10 μM): 47.6%; self-pollination relative (%) to control (Safinia purple; concn 10 μM): 2000%; seed production relative (%) to control (Safinia purple; concn 30 μM): 1714.3%; self-pollination pollination ratio (%) (Safinia purple; concn 30 μM): 52.1%; self-pollination relative (%) to control (Safinia purple; concn 30 μM): 2500%; seed production relative (%) to control (Safinia purple; concn 100 μM): 2228.6%; self-pollination pollination ratio (%) (Safinia purple; concn 100 μM): 82.6%; self-pollination relative (%) to control (Safinia purple; concn 100 μM): 3800%; seed production relative (%) to control (Safinia purple; concn 300 μM): 1471.4%; self-pollination pollination ratio (%) (Safinia purple; concn 300 μM): 74.3%; self-pollination relative (%) to control (Safinia purple; concn 300 μM): 2600%; seed production relative (%) to control (Safinia purple; concn 1000 μM): 2342.9%; self-pollination pollination ratio (%) (Safinia purple; concn 1000 μM): 76.2%; self-pollination relative (%) to control (Safinia purple; concn 1000 μM): 3200%
COCCOCCOCC(=O)[O-].COCCOCCOCC(=O)[O-].[Zn+2] [Zn(II) 2-(2-methoxyethoxy)ethoxyacetete, Zn(II) 2-(2-methoxyethoxy) ethoxyacetete]	0.62	51	0	>60	0	>50	>10	<10	0	0	0	>50	–	–	–	–	–	0	0	1	–
COCCOCC(=O)[O-].COCCOCC(=O)[O-].[Cu+2] [Cu(II) 2-methoxyethoxyacetate]	0.65	58	0	>50	0	>40	>10	<10	0	0	0	>40	–	–	–	–	–	0	0	2	–
O=C([O-])[C@H](O)[C@@H](O)[C@H](O)[C@H](O)CO.O=C([O-])[C@H](O)[C@@H](O)[C@H](O)[C@H](O)CO.[Zn+2] [Zn(II) Gluconate]	0.73	48	–	–	–	–	–	–	–	–	–	–	–	–	–	–	–	–	–	–	–
O=S(=O)([O-])[O-].[Zn+2] [ZnSO4, reference compound]	0.72	–	–	–	–	–	–	–	–	–	–	–	0	0	0	0	<10	2	5	5	fruition rate (Lycopersicon peruvianum; [12]): 0%; fruition rate (Lycopersicon peruvianum; [13]): 0%; fruition rate (Lycopersicon peruvianum; [14]): 0%; fruition rate (Lycopersicon peruvianum; [15]): 0%; fruition rate (Lycopersicon peruvianum; [16]): <5%; fruition rate (Lycopersicon peruvianum; [17]): >5%; fruition rate (Lycopersicon peruvianum; [18]): >5%; fruition rate (Lycopersicon peruvianum; [19]): >10%; fruition rate (Lycopersicon peruvianum; [20]): >10%; fruition rate (Lycopersicon peruvianum; [21]): 0%
